Measured values as given in US20200016134A1, “COMPOSITIONS AND METHODS FOR TREATING SUBSTANCE ABUSE DISORDERS” (EMBERA NEUROTHERAPEUTICS, INC., priority 2016, published 2020).

Assays:
[1] = tested on: adult male Wistar rats; test: Intravenous cocaine self-administration under a multiple, alternating schedule of food reinforcement and cocaine self-administration; type: in vivo, rat; details: for cocaine self-administration and reinstatement of extinguished cocaine seeking: pretreatment with the single drug, summary of the studies
Protocol: Adult male Wistar rats were trained under a multiple, alternating schedule of cocaine and food self-administration. This schedule consisted of alternating periods of cocaine access and food reinforcement. In some instances, as described further below, three doses of cocaine (0.125, 0.25, or 0.50 mg/kg/infusion) were tested. Rats were also periodically trained with saline substitution (cocaine extinction) and food extinction during the same session.
More specifically, adult male Wistar rats were implanted with chronic jugular catheters. Following recovery from surgery, the rats were trained to respond under a multiple, alternating schedule of food reinforcement and cocaine self-administration. Food-maintained responding was used to control for the non-specific motor effects of the various treatments. During the food component of the schedule, the stimulus light located above the food response lever was illuminated to indicate the availability of food reinforcement. […] A 25-second timeout followed the delivery of each food pellet. During this timeout, the stimulus light was darkened and responses on the food lever were counted but had no scheduled consequences. Responding on the other (cocaine) lever during the food component also had no scheduled consequences. […] Following 15 minutes of access to food, all stimulus lights in the chamber were darkened for a 1-minute timeout. Following the timeout, the stimulus light above the cocaine response lever was illuminated to indicate the availability of cocaine (0.125, 0.25, or 0.5 mg/kg/infusion). […] A 20-second timeout period followed each infusion. […] After 15 minutes of access to cocaine and a 1-minute timeout, the rats were again allowed 15 minutes access to the food component of the schedule. Access to food and cocaine alternated in this manner every 15 minutes during the two hour behavioral sessions so that each rat was exposed to food and cocaine for four 15-minute periods each. Each behavioral session began with 15 minutes access to either food or cocaine, and this alternated daily. Stable baselines of responding were established when the total number of cocaine and food presentations, as well as the number of presentations during each of the four exposures each session, varied less than 10% for three consecutive sessions. At least three different doses of cocaine (e.g., 0.125, 0.25, and 0.5 mg/kg/infusion) were tested. Rats were first trained to self-administer 0.25 mg/kg/infusion, which was the standard dose of cocaine used. When responding stabilized, the dose was changed to 0.125 or 0.5 mg/kg/infusion as appropriate.
Once stable baselines of responding were obtained, dose-response curves for the various compounds were individually generated for each rat. Rats were treated with each dose at least twice with a minimum of two days of baseline cocaine self-administration interspersed between each test. Each group of rats was tested with only two of the test compounds to minimize potential carryover effects.

[2] = tested on: adult male Wistar rats; test: Cue-induced reinstatement of extinguished cocaine seeking (model of relapse); type: in vivo, rat; details: FIG. 11; chronic metyrapone 50 mg/kg ip, once per day for 14 days
Protocol: Training to self-administer cocaine: In one model, rats were exposed to alternating 15-minute periods of access to cocaine self-administration and food reinforcement. Food was used to control for potential nonspecific, ataxis effects of the drugs and combinations. […] In this model, rats are trained to self-administer cocaine and the ability of conditioned cues in the environment to reinstate extinguished responding is assessed and taken as a measure of relapse.
Cue-induced Reinstatement of Extinguished Cocaine Seeking: The experiments described herein were designed to investigate whether or not drug combinations identified as effective in reducing cocaine self-administration would also block the ability of conditioned cues to reinstate extinguished cocaine-seeking behavior. Adult male Wistar rats were implanted with chronic jugular catheters and trained to self-administer cocaine (0.25 mg/kg/infusion) by pressing one of the response levers in the experimental chamber (i.e., the “active” or “cocaine” lever) under a fixed-ratio four (FR4) schedule of reinforcement during daily 2-hour sessions conducted 5 days per week. At the start of each session, both levers were extended into the chamber and the stimulus light above the active lever was illuminated to indicate the availability of cocaine. […] A 20-second timeout period followed each infusion. […]

[3] = Phase I single- and multiple-rising dose study: plasma pharmacokinetics; details: human, in vivo
Protocol: METHODS: This was a single- and multiple-rising dose study. Healthy volunteers who smoke, aged 18-65, received a single AM dose on Day 1, BID dosing on Days 3-9 and a single AM dose on Day 10. Three sequential dose cohorts of 8 subjects (6 drug, 2 placebo) received the following doses of MET and OX, respectively: 270 and 12 mg; 540 and 24 mg; and 720 and 24 mg. Total daily doses were double these amounts on BID dosing days. Primary outcomes were safety and pharmacokinetics of MET, its active metabolite (metyrapol), and OX. Safety measures included vital signs, ECGs an standard safety labs. Cortisol and other HPA axis parameters were monitored closely throughout the study.

[4] = tested on: male Wistar rats; test: Forced Swim Test (FST), animal model of depression
[5] = tested on: rats; details: Goeders et al., cited from earlier work
[6] = FIG. 8, high dose alone: muscimol 1-4 mg/kg ip, CP-154,526 10-80 mg/kg ip
[7] = FIG. 8, low, ineffective doses alone: muscimol 0.5-2.0 mg/kg ip, CP-154,526 5-25 mg/kg ip
[8] = FIG. 7, high dose alone: metyrapone 25-175 mg/kg ip, alprazolam 1-5 mg/kg ip
[9] = FIG. 7, low, ineffective doses alone: metyrapone 25-50 mg/kg ip, alprazolam 0.5-2 mg/kg ip
[10] = FIG. 9, high dose alone: muscimol 1-4 mg/kg ip, metyrapone 25-175 mg/kg ip
[11] = FIG. 3, low, ineffective doses alone: alprazolam 0.2-2 mg/kg ip, ketoconazole 5-75 mg/kg ip

| Compound | cocaine self-administration (infusions, percentage of baseline) [1, 6] | cocaine self-administration (infusions, percentage of baseline) [1, 7] | cocaine self-administration and reinstatement of extinguished cocaine seeking ([1]; rats) | cocaine self-administration (number of cocaine infusions) [1, 8] | cocaine self-administration (number of cocaine infusions) [1, 9] | cocaine self-administration (infusions, percentage of baseline) [1, 10] | intravenous cocaine self-administration ([5]; pretreatment) | cocaine self-administration (number of cocaine infusions) [1, 11] | also measured |
| --- | --- | --- | --- | --- | --- | --- | --- | --- | --- |
| CCCCN(CC)c1nc(C)nc2c1c(C)cn2-c1c(C)cc(C)cc1C [CP-154,526] | reduced cocaine self-administration | did not significantly affect cocaine self-administration | decrease cocaine self-administration and the reinstatement of extinguished cocaine seeking |  |  |  |  |  | cocaine self-administration (infusions, percentage of baseline) ([1]; FIG. 6, high dose alone: CP-154,526 10-80 mg/kg ip, oxazepam 5-25 mg/kg ip): reduced cocaine self-administration; cocaine self-administration (infusions, percentage of baseline) ([1]; FIG. 6, low, ineffective doses alone: CP-154,526 5-25 mg/kg ip, oxazepam 5-25 mg/kg ip): did not significantly affect cocaine self-administration |
| CC(C)(C(=O)c1cccnc1)c1cccnc1 [metyrapone] |  |  | decrease cocaine self-administration and the reinstatement of extinguished cocaine seeking | reduced cocaine self-administration | did not significantly affect cocaine self-administration | reduced cocaine self-administration | significant dose-related decreases |  | cocaine seeking (responding on the active lever during reinstatement) [2]: reduced cocaine seeking to levels seen when only saline was delivered; cocaine self-administration (number of cocaine infusions) ([1]; FIG. 1A, high dose alone: metyrapone 25-175 mg/kg ip, oxazepam 5-80 mg/kg ip): reduced cocaine self-administration; t1/2, mean [3]: 1.887 h; immobility time ([4]; chronic administration, single drug, Met50 group (metyrapone 50 mg/kg)): showed a lessening of immobility time; group means of immobility compared with vehicle (tolerance) ([4]; chronically treated groups that received only Ox or Met): equal to or exceeded the vehicle; plasma corticosterone ([5]; pretreatment, 1996): significant dose-related decreases |
| CC(=O)N1CCN(c2ccc(OCC3COC(Cn4ccnc4)(c4ccc(Cl)cc4Cl)O3)cc2)CC1 (stereo not drawn) [ketoconazole] |  |  | decrease cocaine self-administration and the reinstatement of extinguished cocaine seeking |  |  |  | reduced cocaine self-administration | did not significantly affect cocaine self-administration | cocaine- or food-maintained responding ([1]; ketoconazole 12.5 mg/kg tested alone): no effect; cocaine self-administration (number of cocaine infusions) ([1]; rat, in vivo): did not significantly affect cocaine self-administration; minimally effective dose (reduces cocaine self-administration by at least 50% without affecting food-maintained responding) ([1]; rats): 25 mg/kg |
| Cc1nnc2n1-c1ccc(Cl)cc1C(c1ccccc1)=NC2 [alprazolam] |  |  | decrease cocaine self-administration and the reinstatement of extinguished cocaine seeking | reduced cocaine self-administration | did not significantly affect cocaine self-administration |  |  | did not significantly affect cocaine self-administration | responding maintained by food and cocaine ([5]; multiple schedule of iv cocaine and food reinforcement, initial testing, 1993): reduced responding maintained by both food and cocaine |
| NCc1cc(=O)[nH]o1 [muscimol] | reduced cocaine self-administration | did not significantly affect cocaine self-administration |  |  |  | reduced cocaine self-administration |  |  |  |
